Laboratory results reported in publication PMC6150295, “Synthesis and Biological Evaluation of 2H-Indazole Derivatives: Towards Antimicrobial and Anti-Inflammatory Dual Agents” (Molecules : A Journal of Synthetic Chemistry and Natural …, 2017).
≈ marks a conversion by molar mass, not a printed value. Read-outs that look alike come from different tables or passages of the source.

Tests used:
[1] = tested on: Entamoeba histolytica strain HM1-IMSS; test: In vitro antiprotozoal assay (trophozoite subculture method); type: cell-based; conditions: for IC50: Entamoeba histolytica, trophozoites, 48 h with compound then 48 h subculture without drug, read-out: IC50 (µM) E. histolytica
Procedure: (§1) The in vitro antiprotozoal assays against E. histolytica, G. intestinalis, and T. vaginalis of the 2-phenyl-2H-indazole and 2,3-diphenyl-2H-indazole derivatives were carried out following the method previously described. Metronidazole (MTZ) and albendazole (ABZ) were used as reference drugs. […] Similarly, compound 7, having a phenyl at position 2, has good activity against the three protozoa, ranking third in activity for T. vaginalis and forth against G. intestinalis and E. histolytica. […] These derivatives had groups H, COOCH3, Cl, and SO2CH3 at positions 2 and 3, substituents that induced the best response in 2-phenyl-2H-indazole derivatives. In addition, carboxylic acids 20 and 25 were of interest for comparative purposes with ester derivatives.
(§2) Trichomonas vaginalis strain GT3, Giardia intestinalis isolate IMSS:0981:1, and Entamoeba histolytica strain HM1-IMSS were used. Trophozoites of G. intestinalis were maintained in a TYI-S-33 medium supplemented with 10% calf serum and bovine bile. E. histolytica and T. vaginalis trophozoites were maintained in TYI-S-33 medium supplemented with 10% bovine serum. Briefly, 5 × 10^4 trophozoites of G. intestinalis or T. vaginalis, or 6 × 10^3 trophozoites of E. histolytica were incubated for 48 h at 37 °C with different concentrations of the compound to be tested, each added as solutions in DMSO. As a negative control, parasite cultures received an equivalent amount of DMSO only, while albendazole and metronidazole were included as positive controls. At the end of the treatment period, the cells were washed and subcultured for another 48 h in a fresh medium to which no drug was added. […] Experiments were carried out in triplicate and repeated at least twice.

[2] = tested on: Giardia intestinalis isolate IMSS:0981:1; test: as above; type: cell-based; conditions: for IC50: Giardia duodenalis, trophozoites, 48 h with compound then 48 h subculture without drug, read-out: IC50 (µM) G. intestinalis
Procedure: as §1, §2

[3] = tested on: Trichomonas vaginalis strain GT3; test: as above; type: cell-based; conditions: for IC50: Trichomonas vaginalis, GT3, trophozoites, 48 h with compound then 48 h subculture without drug, read-out: IC50 (µM) T. vaginalis
Procedure: as §1, §2

[4] = tested on: Escherichia coli strain EDL933 (EHEC); test: Disk diffusion susceptibility test; type: cell-based; conditions: 5 mg per disc, 37 °C, 24 h
[5] = tested on: Escherichia coli strain 042 (EAEC); test: Disk diffusion susceptibility test; type: cell-based; conditions: 5 mg per disc, 37 °C, 24 h
[6] = tested on: Salmonella enterica serovar Typhi; test: Disk diffusion susceptibility test; type: cell-based; conditions: 5 mg per disc, 37 °C, 24 h
[7] = tested on: Candida albicans; test: Disk diffusion susceptibility test; type: cell-based; conditions: for zone of inhibition at 5000 µg/disc: Candida albicans, read-out: Zone of inhibition at 5 mg per disc (mm) C. albicans
[8] = tested on: Candida glabrata; test: Disk diffusion susceptibility test; type: cell-based; conditions: for zone of inhibition at 5000 µg/disc: Nakaseomyces glabratus, read-out: Zone of inhibition at 5 mg per disc (mm) C. glabrata
[9] = molecular target: T1, human recombinant cyclooxygenase-2 (Homo sapiens, UniProt P35354); test: COX inhibitor screening assay (Cayman kit); type: biochemical; conditions: tested at 10 µM
T1 construct: purchased Cayman Chemical 560131
T1 sequence (P35354 18-604): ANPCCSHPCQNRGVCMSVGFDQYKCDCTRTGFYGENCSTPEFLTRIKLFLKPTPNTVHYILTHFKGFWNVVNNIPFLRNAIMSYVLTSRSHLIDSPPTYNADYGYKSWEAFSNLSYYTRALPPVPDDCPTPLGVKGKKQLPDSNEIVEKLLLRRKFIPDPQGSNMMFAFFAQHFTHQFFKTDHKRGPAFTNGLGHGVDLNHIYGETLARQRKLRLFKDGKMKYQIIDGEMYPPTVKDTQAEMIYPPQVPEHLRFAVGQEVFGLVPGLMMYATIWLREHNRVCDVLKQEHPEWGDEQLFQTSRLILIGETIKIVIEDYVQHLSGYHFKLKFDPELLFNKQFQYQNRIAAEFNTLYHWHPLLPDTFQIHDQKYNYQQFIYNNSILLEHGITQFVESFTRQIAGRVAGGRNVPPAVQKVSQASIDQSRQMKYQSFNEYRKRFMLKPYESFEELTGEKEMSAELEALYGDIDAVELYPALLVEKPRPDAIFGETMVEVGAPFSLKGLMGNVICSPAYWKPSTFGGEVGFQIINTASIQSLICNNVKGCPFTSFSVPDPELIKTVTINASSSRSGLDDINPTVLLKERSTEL
Procedure: Additionally, molecular docking studies using AutoDock Vina software (TSRI, La Jolla, CA, USA) were performed to aid in the interpretation of the experimental results. […] Nevertheless, these compounds represent an interesting starting point towards the design of new antiparasitic compounds with an additional COX-2 inhibitory property.
Assays were carried out by duplicate following the instructions provided by the manufacturer.

[10] = Cytotoxicity MTT assay; type: cell-based, human; conditions: human, 10 µM, 48 h exposure
Procedure: (§3) Biological assays on HaCaT and HeLa cell lines were conducted to gain insight into the cytotoxic effects of these derivatives on human cells, as compared with the effects observed on protozoa. Cellular viability was determined by MTT (3-(4,5-dimethylthiazol-2-yl)-2,5-diphenyltetrazolium bromide) assay. Compounds 18 and 23 were chosen considering their antiprotozoal and anticandidal effect, in addition to their COX-2 inhibitory activity. Additionally, compound 16 was considered as an unsubstituted reference.
(§4) HeLa (human cervical carcinoma) and HaCaT (immortalized human keratinocytes) cells were grown in DMEM (Invitrogen Corporation, Carlsbad, CA, USA) supplemented with 10% FBS (BioWest, Riverside, MO, USA), and maintained in standard culture conditions (37 °C, 95% humidity, and 5% CO2). Cells were allowed to grow to a density of 80% and then were harvested using sterile PBS/EDTA (pH 7.4) before starting every experiment. Cells were seeded in 96-well plates (7000 cells/well in 200 µL of DMEM). After 24 h the cells were exposed to test compounds dissolved in DMSO (J.T. Baker, Phillipsburg, NJ, USA) at different concentrations and diluted in 50 µL of DMEM, to reach 250 µL in the well. The exposure time was 48 h, and then viability was determined by MTT assay. The absorbance of formazan was determined for each well and its viability was related to the vehicle (100%). The IC50 was calculated from dose-response curve by non-linear fit using OriginPro 7.0 software (RockWare, Golden, CO, USA).

[11] = tested on: HaCaT cells; test: Cytotoxicity MTT assay; type: cell-based, human; conditions: Homo sapiens, HaCaT, 48 h exposure
Procedure: as §3, §4

[12] = tested on: HeLa cells; test: Cytotoxicity MTT assay; type: cell-based, human; conditions: Homo sapiens, 48 h exposure
Procedure: as §3, §4

[13] = tested on: C. albicans; test: Minimum inhibitory concentration (antimycotic effect); type: cell-based; conditions: Candida albicans
[14] = tested on: C. glabrata; test: as above; type: cell-based, Candida glabrata; conditions: Nakaseomyces glabratus
[15] = 16 relative to 7, 20 compared to 13
[16] = read-out: % Viability (10 µM) HaCaT Cells
[17] = read-out: % Viability (10 µM) HeLa Cells
[18] = positive control, ketoconazole 50 µg

SMILES | IC50 [1] [µM] | IC50 [2] [µM] | IC50 [3] [µM] | Inhibition (positive / none) E. coli 933 [4] | Inhibition (positive / none) E. coli 042 [5] | Inhibition (positive / none) S. Typhi [6] | Inhibition (positive / none) C. albicans ([7]; 5 mg per disc, 37 °C, 24 h) | Inhibition (positive / none) C. glabrata ([8]; 5 mg per disc, 37 °C, 24 h) | viability at 48 h, 10 µM [10, 16] [%] | viability at 48 h, 10 µM [10, 17] [%] | melting point [°C] | zone of inhibition at 5000 µg/disc [7] [mm] | zone of inhibition at 5000 µg/disc [8] [mm] | MIC [13] [mM] | MIC [14] [mM] | inhibition at 10 µM [9] [%] | also measured
c1ccc(-c2c3ccccc3nn2-c2ccccc2)cc1 [Compound 16, 2,3-Diphenyl-2H-indazole] | 0.303 ± 0.0105 | 0.0518 ± 0.0052 | 0.0573 ± 0.0026 | - | - | - | - | - | 95 ± 2.44 | 93 ± 4.57 | 107.4 to 107.9 |  |  |  |  |  | improvement in potency against G. intestinalis relative to the analog [2, 15]: two-fold; improvement in potency against T. vaginalis relative to the analog [3, 15]: two-fold; % of Inhibition of COX-2 [9]: Inactive; IC50 [11]: 93.7 ± 17.3 µM; IC50 [12]: 125 ± 29.6 µM
COC(=O)c1ccc(-n2nc3ccccc3c2-c2ccccc2)cc1 [Compound 18, Methyl 4-(3-phenyl-2H-indazol-2-yl) benzoate] | 0.0502 ± 0.0022 | 0.0959 ± 0.0022 | 0.102 ± 0.0151 | - | - | - | + | + | 96.2 ± 4.14 | 94.1 ± 3.31 | 152.4 to 154.9 | 10 | 3 | 3.81 (≈ 1250 µg/mL) | 15.2 (≈ 5000 µg/mL) | 50 ± 9.49 | times more active than metronidazole against G. intestinalis ([2]; ratio of IC50 values): 12.8 times
COC(=O)c1ccc(-c2c3ccccc3nn2-c2ccccc2)cc1 [Compound 23, Methyl 4-(2-phenyl-2H-indazol-3-yl) benzoate] | 0.0731 ± 0.0086 | 0.119 ± 0.0086 | 0.143 ± 0.0043 | - | - | - | + | + | 97.8 ± 5.19 | 93.7 ± 7.48 | 164.5 to 166.3 | 13 | 4 | 3.81 (≈ 1250 µg/mL) | 15.2 (≈ 5000 µg/mL) | 36.4 ± 1.7 | 
CS(=O)(=O)c1ccc(-c2c3ccccc3nn2-c2ccccc2)cc1 [Compound 26, 3-(4-(Methylsulfonyl)phenyl)-2-phenyl-2H-indazole] | 0.0459 ± 0.0081 | 0.106 ± 0.0081 | 0.184 ± 0.0162 | - | - | - | - | - |  |  | 206.9 to 208.8 |  |  |  |  | 41.2 ± 5.93 | improvement in potency against E. histolytica relative to the analog ([1]; 17 compared with 8, 20 compared to 13, 26 compared to 21): four-fold
CC(=O)N1CCN(c2ccc(OCC3COC(Cn4ccnc4)(c4ccc(Cl)cc4Cl)O3)cc2)CC1 (stereo not shown) [Ketoconazole, reference compound] |  |  |  |  |  |  |  |  |  |  |  |  |  | 0.045 (≈ 23.9 µg/mL) | 0.079 (≈ 42 µg/mL) |  | Inhibition (positive / none) C. albicans [7, 18]: +; Inhibition (positive / none) C. glabrata [8, 18]: +
